Values quoted from earlier work in US20080187561A1, “Enteric Coated Didanosine Compositions Having A Subcoat” (priority 2007, published 2008).

Conditions: pH<3, 37° C., acidic solution

## OC[C@@H]1CC[C@H](n2cnc3c(O)ncnc32)O1 [didanosine, 2′,3′-dideoxyinosine]
  Time in which 10% of didanosine decomposes to hypoxanthine: less than 2 minutes
